Data published in ChEMBL document CHEMBL1811840, “p-hydroxyacetophenone amides from Cystobacter ferrugineus, strain Cb G35” (J Nat Prod, 2011).
Calls of active or inactive are those of the source. The calls are words filed in the database; no cut-off is given here.

Legend:
Staphylococcus aureus = assay: Antimicrobial activity against Staphylococcus aureus at 100 ug/mL after 24 hrs by serial dilution method; assay type: functional, organism-based
Wickerhamomyces anomalus = assay: Antimicrobial activity against Pichia anomala at 100 ug/mL after 24 hrs by serial dilution method; assay type: functional, organism-based
Botryococcus braunii = assay: Antimicrobial activity against Botryococcus braunii at 0.8 to 100 ug/mL by serial dilution method; assay type: functional
Pseudococcomyxa simplex [1] = assay: Antimicrobial activity against Pseudococcomyxa simplex at 0.8 to 100 ug/mL by serial dilution method; assay type: functional
[2] = test system: Chromobacterium violaceum; assay: Antimicrobial activity against Chromobacterium violaceum at 100 ug/mL after 24 hrs by serial dilution method; assay type: functional, organism-based
Rhodotorula glutinis = assay: Antimicrobial activity against Rhodotorula glutinis at 100 ug/mL after 24 hrs by serial dilution method; assay type: functional, organism-based
Mucor hiemalis = assay: Antimicrobial activity against Mucor hiemalis at 100 ug/mL by serial dilution method; assay type: functional, organism-based
Nocardia = assay: Antimicrobial activity against Nocardia flava at 100 ug/mL after 24 hrs by serial dilution method; assay type: functional
Chlamydomonas = assay: Antimicrobial activity against Chlamydomonas sp. at 0.8 to 100 ug/mL by serial dilution method; assay type: functional
Bracteacoccus = assay: Antimicrobial activity against Bracteacoccus sp. at 0.8 to 100 ug/mL by serial dilution method; assay type: functional
[3] = test system: Scenedesmus bajacalifornicus; assay: Antimicrobial activity against Scenedesmus bajacalifornicus at 0.8 to 100 ug/mL by serial dilution method; assay type: functional; conditions: Tetradesmus bajacalifornicus
Candida albicans = assay: Antimicrobial activity against Candida albicans at 100 ug/mL after 24 hrs by serial dilution method; assay type: functional, organism-based
U-937 = assay: Cytotoxicity against human U937 cells up to 100 ug/mL by WST-1 assay; assay type: functional, cell-based
Micrococcus luteus = assay: Antimicrobial activity against Micrococcus luteus at 100 ug/mL after 24 hrs by serial dilution method; assay type: functional, organism-based
Escherichia coli = assay: Antimicrobial activity against Escherichia coli at 100 ug/mL after 24 hrs by serial dilution method; assay type: functional, organism-based
[4] = test system: Schizosaccharomyces pombe; assay: Antimicrobial activity against Schizosaccharomyces pombe at 100 ug/mL after 24 hrs by serial dilution method; assay type: functional, organism-based
Pseudococcomyxa simplex [5] = assay: Antimicrobial activity against Pseudococcomyxa simplex at 100 ug/mL by serial dilution method; assay type: functional

Compound	growth inhibition (GI) (Staphylococcus aureus)	growth inhibition (GI) (Wickerhamomyces anomalus)	growth inhibition (GI) (Botryococcus braunii)	growth inhibition (GI) (Pseudococcomyxa simplex [1])	growth inhibition (GI) [2]	growth inhibition (GI) (Rhodotorula glutinis)	growth inhibition (GI) (Mucor hiemalis)	growth inhibition (GI) (Nocardia)	growth inhibition (GI) (Chlamydomonas)	growth inhibition (GI) (Bracteacoccus)	growth inhibition (GI) [3]	growth inhibition (GI) (Candida albicans)	Activity (U-937)	growth inhibition (GI) (Micrococcus luteus)	growth inhibition (GI) (Escherichia coli)	growth inhibition (GI) [4]	growth inhibition (GI) (Pseudococcomyxa simplex [5])
CC(C)CCC(=O)NCC(=O)c1ccc(O)cc1	inactive	inactive	inactive	inactive	inactive	inactive	inactive	inactive	inactive	inactive	inactive	inactive	inactive	inactive	inactive	inactive	–
CCCC(=O)NCC(=O)c1ccc(O)cc1	inactive	inactive	inactive	inactive	inactive	inactive	inactive	inactive	inactive	inactive	inactive	inactive	inactive	inactive	inactive	inactive	–
CC(=O)NCC(=O)c1ccc(O)cc1	inactive	inactive	inactive	inactive	inactive	inactive	inactive	inactive	inactive	inactive	inactive	inactive	inactive	inactive	inactive	inactive	–
CCCCCC(=O)NCC(=O)c1ccc(O)cc1	inactive	inactive	inactive	inactive	inactive	inactive	inactive	inactive	inactive	inactive	inactive	inactive	inactive	inactive	inactive	inactive	–
CC(C)CC(=O)N/C=C/c1ccc(O)cc1	inactive	inactive	inactive	–	inactive	inactive	inactive	inactive	inactive	inactive	inactive	inactive	inactive	inactive	inactive	inactive	Active
CC(C)CC(=O)NCC(=O)c1ccc(O)cc1	inactive	inactive	inactive	inactive	inactive	inactive	inactive	inactive	inactive	inactive	inactive	inactive	inactive	inactive	inactive	inactive	–
